Earlier results, collected in US6632929B1, “Avidin derivatives and uses thereof” (Yeda Research and Development Co. LTD, priority 1998, dated 2003).

Experiments:
[1] = molecular target: T1, avidin (Gallus gallus, UniProt P02701); details: non-covalent, same biotin-binding site (Green, 1965); read-out: affinity; cited from earlier work
T1 construct: Egg-white avidin was provided by STC laboratories (Winnipeg, Canada); purchased STC laboratories (Winnipeg, Canada); host or cells: egg white

[2] = molecular target: T1, avidin; details: avidin-biotin complex; cited from earlier work
[3] = molecular target: streptavidin (Streptomyces avidinii, UniProt P22629); details: streptavidin-biotin complex; cited from earlier work
Sequence of streptavidin (P22629 25-183): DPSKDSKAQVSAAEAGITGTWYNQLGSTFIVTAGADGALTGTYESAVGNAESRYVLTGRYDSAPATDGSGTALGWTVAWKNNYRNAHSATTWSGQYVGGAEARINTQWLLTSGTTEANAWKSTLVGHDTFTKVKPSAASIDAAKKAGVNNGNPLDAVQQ

T1 sequence (P02701 25-152): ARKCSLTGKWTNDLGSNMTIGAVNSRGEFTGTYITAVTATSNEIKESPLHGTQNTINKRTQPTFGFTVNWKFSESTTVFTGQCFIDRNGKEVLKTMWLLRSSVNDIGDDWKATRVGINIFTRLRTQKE

SMILES	Kd [1] [µM]	affinity constant [2] [M⁻¹]	affinity constant [3] [M⁻¹]
O=C(O)c1ccccc1N=Nc1ccc(O)cc1 [4′-hydroxyazobenzene-2-carboxylic acid]	1 to 10	–	–
O=C(O)CCCC[C@@H]1SC[C@@H]2NC(=O)N[C@@H]21 [biotin]	–	1.6e+15	2.5e+13
